Data published in patent US20240109893A1, “PREPARATION AND APPLICATION METHOD OF HETEROCYCLIC COMPOUNDS AS KRAS INHIBITOR” (SHANGHAI KECHOW PHARMA, INC., priority 2020, published 2024).

Experiments:
[1] = target: KRAS G12C-GDP (Homo sapiens (Human), UniProt P01116, G12C); assay: KRAS G12C-GDP exchange test (SOS/cRAF/GTP, HTRF); assay type: biochemical; conditions: 1 h premix with compound, 2 h reaction with SOS, cRAF, GTP
Method: 2. A mixture of SOS (Pharmaron, ZZY-20190823), cRAF (Pharmaron, ZZY-20190823), GTP (Sigma, A6885-100MG), MAb Anti 6HIS-d2/MAb Anti GST-Eu (Cisbio, 61HISDLB/61GSTKLB) was added for a catalyzed reaction for 2 h.
3. The fluorescence signals of the emitted light at 615 nm and 665 nm under 320 nm excitation light were read by Biotek Microplate Reader (Synergy4).
4. The IC50 (median inhibitory concentration) of the compound was obtained by the following non-linear fitting formula: Y=Bottom+(Top−Bottom)/(1+10^((Log IC50−X)*Hill Slope)), and the data were analyzed by Graphpad 6-0 software.

[2] = Pharmacokinetic experiment in SD rats; assay type: in vivo; conditions: male, Sprague-Dawley, rat, plasma, po, 10 mg/kg; read-out: Oral bioavailability, F %
Method: Pharmacokinetic Experiment in SD Rats:
1. SPF male rats were randomly divided into groups. The compounds to be tested were separately administered by intravenous injection and oral gavage, with 3 animals for each compound to be tested in each mode of administration. The administration solvent was 5% DMSO+10% Solutol+85% normal saline or 85% PBS, and the substances to be tested were dissolved in the solvent to obtain clear solutions. Administration concentration and volume: 1) a single intravenous injection of 0.6 mg/mL of the compound to be tested, with an administration volume of 5 mL/kg and an administration dosage of 3 mg/kg; and 2) a single oral gavage of 1 mg/mL of the compound to be tested, with an administration volume of 10 mL/kg and an administration dosage of 10 mg/kg. The rats were fasted overnight (10-14 h) before administration and fed 4 h after administration.
2. Blood was collected via the jugular vein or by other appropriate methods at 200 μL per time point and anticoagulated with K2-EDTA, and after collection, the blood was placed on ice and centrifuged for plasma within 1 h (centrifugation conditions: 6800 g, 6 min 2-8° C.). The points for blood sampling from the animals in the intravenous injection group were respectively: before administration, and 5 min, 15 min, 30 min, 1 h, 2 h, 4 h, 8 h, and 24 h after administration; and the points for blood sampling from the animals in the oral administration group were respectively: before administration, and 15 min, 30 min, 1 h, 2 h, 4 h, 6 h, 8 h, and 24 h after administration.
3. The blood concentration was detected, and the pharmacokinetic parameter AUC(0-t) was calculated by Phoenix WinNonlin based on the blood concentration data at various time points. When the pharmacokinetic parameters were calculated, the BLQ before Cmax (including ‘No peak’) was calculated as 0: and BLQ after Cmax (including ‘No peak’) was not involved in the calculation.

[3] = system: H358 cells; assay: Cell activity experiment: activity test of H358 cells (MTT, 5 days); assay type: cell-based; conditions: 5 days incubation, absorbance 492 nm
Method in brief: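 H358 cells seeded 90 μL at 55555 cells/mL, grown 24 h, then exposed to 3-fold serial compound dilutions (final top 10000 nM, 0.5% DMSO) in triplicate for 5 days at 37° C., 5% CO2. Viability by MTT (4 h), formazan dissolved in DMSO, absorbance at 492 nm.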

Row | Compound | IC50 [1] [nM] | bioavailability [2] [%] | IC50 ([3]; Homo sapiens, NCI-H358, 120 h) [nM] | IC50 [3] [nM]
1 | C=C(F)C(=O)N1CCN(c2nc(OC[C@@]34CCCN3C[C@H](F)C4)nc3c(F)c(-c4cccc5cccc(Cl)c45)ccc23)C[C@@H]1CC#N [Example 904, 2-((S)-4-(7-(8-chloronaphthalen-1-yl)-8-fluoro-2-((2R,7aS)-2-fluorotetrahydro-1H-pyrrolizin-7a(5H)-methoxy)quinazolin-4-yl)-1-(2-fluoroacryloyl)piperazin-2-yl)acetonitrile] | 0.93 | 30.3 | 0.4 | 
2 | C=CC(=O)N1CCN(c2nc(OC[C@@H]3CCCN3C)nc3cc(-c4cccc5cccc(Cl)c45)ccc23)C[C@@H]1CC#N [Example 73, 2-((S)-1-acryloyl-4-(7-(8-chloronaphthalen-1-yl)-2-(((S)-1-methylpyrrolidin-2-yl)methoxy)quinazolin-4-yl)piperazin-2-yl)acetonitrile] | 1.34 |  | 15 | 
3 | C=C(F)C(=O)N1CCN(c2nc(OCC34CCCN3CCC4)nc3c(F)c(-c4cccc5c4CCCC5)ncc23)C[C@@H]1CC#N [Example 3, (S)-2-(4-(8-fluoro-2-((tetrahydro-1H-pyrrolizin-7a(5H)-yl)methoxy)-7-(5,6,7,8-tetrahydronaphthalen-1-yl)pyridino[4,3-d]pyrimidin-4-yl)-1-(2-fluoroacryloyl)piperazin-2-yl)acetonitrile] | 13.8 |  | 3.5 | 
4 | C=CC(=O)N1CCN(c2nc(OCC34CCCN3CCC4)nc3c(F)c(-c4cccc5c4CCCC5)ncc23)C[C@@H]1CC#N [Example 2, (S)-2-(1-acryloyl-4-(8-fluoro-2-((tetrahydro-1H-pyrrolizin-7a(5H)-yl)methoxy)-7-(5,6,7,8-tetrahydronaphthalen-1-yl)pyridino[4,3-d]pyrimidin-4-yl)piperazin-2-yl)acetonitrile] | 10.6 |  | 1 | 
5 | C=C(F)C(=O)N1CCN(c2nc(OC[C@@H]3CCCN3C)nc3c(F)c(-c4cccc5c4CC4CC54)ccc23)C[C@@H]1CC#N (single isomer, unassigned) [Example 883] | 0.49 |  |  | 10.6
6 | C=CC(=O)N1CCN(c2nc(OC[C@@]34CCCN3C[C@H](F)C4)nc3c(F)c(-c4cccc5cccc(Cl)c45)ccc23)C[C@@H]1CC#N [Example 367, 2-((2S)-1-acryloyl-4-(7-(8-chloronaphthalen-1-yl)-8-fluoro-2-((((2R,7aS)-2-fluorotetrahydro-1H-pyrrolizin-7a(5H))-yl)methoxy)quinazolin-4-yl)piperazin-2-yl)acetonitrile] |  | 11.6 | 1.5 | 
7 | C=C(F)C(=O)N1CC[C@@H]2[C@H]1CN2c1nc(OC[C@@H]2CCCN2C)nc2c(F)c(-c3cccc4c3CCCC4)ncc12 [Example 10, 2-fluoro-1-((1R,5R)-6-(8-fluoro-2-(((S)-1-methylpyrrolidin-2-yl)methoxy)-7-(5,6,7,8-tetrahydronaphthalen-1-yl)pyridino[4,3-d]pyrimidin-4-yl)-2,6-diazabicyclo[3.2.0]hept-2-yl)prop-2-en-1-one] | 8 |  | 60 | 
8 | C=CC(=O)N1CCN(c2nc(OC[C@@H]3CCCN3C)nc3nc(-c4cccc5c4CCCC5)ccc23)C[C@@H]1CC#N [Example 286, 2-((S)-1-acryloyl-4-(2-(((S)-1-methylpyrrolidin-2-yl)methoxy)-7-(5,6,7,8-tetrahydronaphthalen-1-yl)pyridino[2,3-d]pyrimidin-4-yl)piperazin-2-yl)acetonitrile] | 9.91 |  |  | 355
9 | C=C(F)C(=O)N1CCN(c2nc(OC[C@@H]3CCCN3C)nc3c(F)c(-c4cccc5cccc(Cl)c45)ccc23)C[C@@H]1CC#N [Example 903] | 0.89 | 28.6 | 0.7 | 
10 | C=CC(=O)N1CCN(c2nc(OC[C@@H]3CCCN3C)nc3c(F)c(-c4ccc(F)c5c4CCCC5)ncc23)C[C@@H]1CC#N [Example 17, 2-((S)-1-acryloyl-4-(8-fluoro-7-(4-fluoro-5,6,7,8-tetrahydronaphthalen-1-yl)-2-(((S)-1-methylpyrrolidin-2-yl)methoxy)pyridino[4,3-d]pyrimidin-4-yl)piperazin-2-yl)acetonitrile] | 1.65 |  | 30 | 
11 | C=CC(=O)N1CCN(c2nc(OC[C@@H]3CCCN3C)nc3cc(-c4cccc5ccc(F)c(Cl)c45)cnc23)C[C@@H]1CC#N [Example 840, 2-((S)-1-acryloyl-4-(7-(8-chloro-7-fluoronaphthalen-1-yl)-2-(((S)-1-methylpyrrolidin-2-yl)methoxy)pyridino[3,2-d]pyrimidin-4-yl)piperazin-2-yl)acetonitrile] | 4.52 |  | 809 | 
12 | C=CC(=O)N1CCN(c2nc(OC[C@@H]3CCCN3C)nc3cc(-c4cccc5cccc(Cl)c45)c(Cl)cc23)C[C@@H]1CC#N [Example 465, 2-((S)-1-acryloyl-4-(6-chloro-7-(8-chloronaphthalen-1-yl)-2-(((S)-1-methylpyrrolidin-2-yl)methoxy)quinazolin-4-yl)piperazin-2-yl)acetonitrile] | 2.23 |  | 70 | 
13 | C=CC(=O)N1CCN(c2nc(OC[C@@H]3CCCN3C)nc3c(F)c(-c4cccc5c4CCCC5)ncc23)C[C@@H]1CC#N [Example 1, 2-((S)-1-acryloyl-4-(8-fluoro-2-(((S)-1-methylpyrrolidin-2-yl)methoxy)-7-(5,6,7,8-tetrahydronaphthalen-1-yl)pyridino[4,3-d]pyrimidin-4-yl)piperazin-2-yl)acetonitrile] | 20.3 |  | 15 | 
14 | C=CC(=O)N1CCN(c2nc(OC[C@@H]3CCCN3C)nc3c(F)c(-c4cccc5c4CC4CC54)ncc23)C[C@@H]1CC#N (single isomer, unassigned) [Example 873] | 0.79 |  |  | 12
15 | C=C(F)C(=O)N1CCN(c2nc(OC[C@@]34CCCN3C[C@H](F)C4)nc3c(F)c(-c4cccc5c4CC4CC54)ncc23)C[C@@H]1CC#N (single isomer, unassigned) [Example 879] | 0.59 | 16.9 |  | 4
16 | C=CC(=O)N1CCN(c2nc(OC[C@@H]3CCCN3C)nc3c(F)c(-c4cccc5cccc(Cl)c45)ccc23)C[C@@H]1CC#N [Example 358, 2-((S)-1-acryloyl-4-(7-(8-chloronaphthalen-1-yl)-8-fluoro-2-(((S)-1-methylpyrrolidin-2-yl)methoxy)quinazolin-4-yl)piperazin-2-yl)acetonitrile] | 2.4 | 2.35 | 3.4 | 
17 | 2-((S)-1-acryloyl-4-(6-fluoro-7-(8-chloro-7- fluoronaphthalen-1-yl)-2-(((S)-1-methylpyrrolidin-2- yl))methoxy)quinazolin-4-yl)piperazin-2-yl)acetonitrile [Example 395] | 1.32 |  |  | 61
18 | C=C(F)C(=O)N1CCN(c2nc(OC[C@@]34CCCN3C[C@H](F)C4)nc3c(F)c(-c4cccc5ccc(F)c(Cl)c45)ccc23)C[C@@H]1CC#N [Example 914, 2-((S)-4-(7-(8-chloro-7-fluoronaphthalen-1-yl)-8-fluoro-2-((2R,7aS)-2-fluorotetrahydro-1H-pyrrolizin-7a(5H)-ylmethoxy)quinazolin-4-yl)-1-(2-fluoroacryloyl)piperazin-2-yl)acetonitrile] |  | 28.5 | 0.4 | 
19 | C=CC(=O)N1CCN(c2nc(OC[C@@H]3CCCN3C)nc3c(F)c(-c4cccc5c4CC4CC54)ccc23)C[C@@H]1CC#N (single isomer, unassigned) [Example 881] | 0.71 |  |  | 3.4
20 | C=CC(=O)N1CCN(c2nc(OCC3(CN4CCCC4)CC3)nc3c(F)c(-c4cccc5cccc(Cl)c45)ncc23)C[C@@H]1CC#N [Example 854, (S)-2-(1-acryloyl-4-(7-(8-chloronaphthalen-1-yl)-8-fluoro-2-((1-(pyrrolidin-1-ylmethyl)cyclopropyl)methoxy)pyridino[4,3-d]pyrimidin-4-yl)piperazin-2-yl)acetonitrile] | 0.59 |  | 4.4 | 
